Experimental data as given in PMC11305242 (Heliyon, 2024).

Columns and labels:
alpha-glucosidase = test: Kinetics of alpha-glucosidase inhibition; format: biochemical, Saccharomyces cerevisiae; details: for mode of alpha-glucosidase inhibition: decreases in Vmax without changes in Km; for Vmax: substrate PNPG 0.25-2.0 mM
[1] = biological target: alpha-amylase from Aspergillus oryzae (Aspergillus oryzae, UniProt P0C1B3); test: In vitro alpha-amylase inhibition assay; format: biochemical
[2] = biological target: alpha-glucosidase enzyme from Saccharomyces cerevisiae recombinant; test: In vitro alpha-glucosidase inhibition assay; format: biochemical; details: for IC50: read-out: IC50 ± S.D. alpha-glucosidase, mean ± SD, n = 3
[3] = system: advanced glycation end products (AGEs) formation (glycated BSA); test: In vitro advanced glycation end products; format: biochemical; details: read-out: IC50 ± S.D. advanced glycation end product inhibitory activity, 37 °C, seven days in the dark, mean ± SD, n = 3, NA = no inhibitory activity

## C[C@H]1O[C@H](O[C@H]2[C@H](O)[C@@H](O)[C@@H](O[C@H]3[C@H](O)[C@@H](O)C(O)O[C@@H]3CO)O[C@@H]2CO)[C@H](O)[C@@H](O)[C@@H]1N[C@H]1C=C(CO)[C@@H](O)[C@H](O)[C@H]1O (stereo partly drawn) [Acarbose, acarbose, reference compound]
alpha-glucosidase
  mode of alpha-glucosidase inhibition: non-competitive
alpha-glucosidase; inhibitor 200 μM
  Km: 4.98 mM
  Vmax: 0.045 △OD/min
alpha-glucosidase; inhibitor 400 μM
  Km: 4.96 mM
  Vmax: 0.030 △OD/min

## COc1cc2c(c(O)c1OC)-c1ccc(O)cc1CC2 [Compound 3, ephemeranthol A]
[1]
  IC50: 280 ± 9.76 µM
[2]
  IC50: 62.5 ± 2.85 µM

## Oc1ccc2c(c1)CCc1cc(O)cc(O)c1-2 [Compound 7, 2,4,7-trihydroxy-9,10-dihydrophenanthrene]
[1]
  IC50: 617 ± 11 µM
[2]
  IC50: 422 ± 7 µM
[3]
  IC50: 411 ± 15 µM

## COc1cc(O)cc2ccc3cccc(O)c3c12 [Compound 5, moscatin]
[1]; mean ± SD, n = 3, NA = no inhibitory activity
  IC50 ± S.D. alpha-amylase: did not inhibit alpha-amylase activity
[2]; IC50 relative to acarbose
  fold lower alpha-glucosidase IC50 than acarbose: approximately 10 fold
[2]
  IC50: 32.5 ± 1.04 µM
alpha-glucosidase; Ki relative to acarbose
  fold greater alpha-glucosidase inhibitory potency than acarbose (Ki): approximately 9 fold
alpha-glucosidase
  mode of alpha-glucosidase inhibition: non-competitive
alpha-glucosidase; inhibitor 30 μM
  Km: 1.62 mM
  Vmax: 0.017 △OD/min
alpha-glucosidase; inhibitor 60 μM
  Km: 1.66 mM
  Vmax: 0.011 △OD/min

## COc1cc(O)c2c(c1)CCc1cc(O)ccc1-2 [Compound 6, lusianthridin]
[1]
  IC50: 372.2 ± 2.74 µM
[2]
  IC50: 63.89 ± 0.27 µM

## N=C(N)NN [Aminoguanidine, aminoguanidine, reference compound]
[3]
  IC50: 327 ± 5.95 µM

## COc1cc(O)cc(CCc2ccc(O)c(OC)c2)c1 [Compound 4, gigantol]
[1]
  IC50: 332 ± 4.23 µM
[2]
  IC50: 231 ± 11.3 µM

## COc1cc(CCc2cc(OC)c(O)c(OC)c2)ccc1O [Compound 2, moscatilin]
[1]
  IC50: 257 ± 9.87 µM
[2]
  IC50: 173 ± 5.84 µM
[3]
  IC50: 168 ± 9.42 µM
